The source of these data is patent US7846925B2, “Azolidinone-vinyl fused-benzene derivatives” (Merck Serono SA, priority 2002, dated 2010).

In experiment [1] the target is Human recombinant GST-PI3Kγ (Homo sapiens, UniProt P48736). The experiment is described as follows: High Throughput PI3K Lipid Kinase Assay (scintillation proximity assay). In kind it is biochemical. How it is done: a) High Throughput PI3K Lipid Kinase Assay (Binding Assay):
The assay combines the scintillation proximity assay technology (SPA, Amersham) with the capacity of neomycin (a polycationic antibiotic) to bind phospholipids with high affinity and specificity. The Scintillation Proximity Assay is based on the properties of weakly emitting isotopes (such as ^3H, ^125I, ^33P). Coating SPA beads with neomycin allows the detection of phosphorylated lipid substrates after incubation with recombinant PI3K and radioactive ATP in the same well, by capturing the radioactive phospholipids to the SPA beads through their specific binding to neomycin.
To a 384 wells MTP containing 5 μl of the test compound of formula (I) (solubilized in 6% DMSO; to yield a concentration of 100, 30, 10, 3, 1, 0.3, 0.1, 0.03, 0.01, 0.001 μM of the test compound), the following assay components are added. 1) 5 μl (58 ng) of Human recombinant GST-PI3Kγ (in Hepes 40 mM, pH 7.4, DTT 1 mM and ethyleneglycol 5%) 2) 10 μl of lipid micelles and 3) 10 μl of Kinase buffer ([^33P]γATP 45 μM/60 nCi, MgCl2 30 mM, DTT 1 mM, β-Glycerophosphate 1 mM, Na3VO4 100 μM, Na Cholate 0.3%, in Hepes 40 mM, pH 7.4). After incubation at room temperature for 180 minutes, with gentle agitation, the reaction is stopped by addition of 60 μl of a solution containing 100 μg of neomycin-coated PVT SPA beads in PBS containing ATP 10 mM and EDTA 5 mM. The assay is further incubated at room temperature for 60 minutes with gentle agitation to allow binding of phospholipids to neomycin-SPA beads. After precipitation of the neomycin-coated PVT SPA beads for 5 minutes at 1500×g, radioactive PtdIns(3)P is quantified by scintillation counting in a Wallac MicroBeta™ plate counter.
The values indicated in respect of PI3Kγ refer to the IC50 (μM), i.e. the amount necessary to achieve 50% inhibition of said target. Said values show a considerable potency of the azolidinone-vinyl fused-benzene compounds with regard to PI3Kγ.
For orientation: In a scintillation proximity assay essentially only radioactivity close to the scintillant gives light.

Experiment [2] relates to C5a-mediated AKT phosphorylation. The experiment is described as follows: Cell based ELISA: Akt/PKB phosphorylation in Raw 264-7 macrophages after stimulation with C5a. The conditions noted are these: Mus musculus, RAW264.7, compound at 1 μM, 50 nM C5a, read-out: percentage of inhibition of C5a-mediated AKT phosphorylation. How it is done: b) Cell Based ELISA to Monitor PI3K Inhibition:
Measurement of Akt/PKB phosphorylation in macrophages after stimulation with C5a: Raw 264: Raw 264-7 macrophages (cultured in DMEM-F12 medium containing 10% Fetal Calf serum and antibiotics) are plated at 20'000 cells/well in a 96 MTP 24 h before cell stimulation. Previous to the stimulation with 50 nM of Complement 5a (C5a; which is a well known chemokine which stimulates the used cells) during 5 minutes, Cells are serum starved for 2 h, and pretreated with inhibitors for 20 minutes. After stimulation cells are fixed in 4% formaldehyde for 20 minutes and washed 3 times in PBS containing 1% Triton X-100 (PBS/Triton). Endogenous peroxidase is blocked by a 20 minutes incubation in 0.6% H2O2 and 0.1% Sodium Azide in PBS/Triton and washed 3 times in PBS/Triton. Cells are then blocked by 60 minutes incubation with 10% fetal calf serum in PBS/Triton. Next, phosphorylated Atk/PKB is detected by an overnight incubation at 4° C. with first antibody (anti phospho Serine 473 Akt 1HC, Cell Signaling) diluted 800-fold in PBS/Triton, containing 5% bovine serum albumin (BSA). After 3 washes in PBS/Triton, cells are incubated for 60 minutes with a peroxidase conjugated goat-anti-rabbit antibody (1/400 dilution in PBS/Triton, containing 5% BSA), washed 3 times in PBS/Triton, and 2 times in PBS and further incubated in 100 μl of substrate reagent solution (R&D) for 20 minutes.
The reaction is stopped by addition of 50 μl of 1 M H2SO4 and absorbance is read at 450 nm.
The values indicated reflect the percentage of inhibition of AKT phosphorylation as compared to basal level. Said values show a clear effect of the azolidinone-vinyl fused-benzene compounds on the activation of AKT phosphorylation in macrophages.
On the technique in general: In an ELISA, binding on a coated surface is turned into a signal by an enzyme label.

For experiment [3] the following is noted: in vivo; cited from earlier work.
Experiment [4] concerns the target CK2 protein kinase (Homo sapiens, UniProt P68400). Particulars: cited from earlier work.
Experiment [5] has as its system phospholipases. Particulars: cited from earlier work.
The subject of experiment [6] is Class I PI3-kinases. Particulars: read-out: IC50 against each of these PI3-kinases; cited from earlier work.
Experiment [7] has as its system neutrophil. Particulars: cited from earlier work.

The structures appear in SMILES notation. Bounds are passed on as bounds.

The term IC50 denotes the point on the concentration scale where inhibition reaches its midpoint. In general, inhibition refers to how much of the control response was suppressed.

Sequence of Human recombinant GST-PI3Kγ (P48736 whole entry): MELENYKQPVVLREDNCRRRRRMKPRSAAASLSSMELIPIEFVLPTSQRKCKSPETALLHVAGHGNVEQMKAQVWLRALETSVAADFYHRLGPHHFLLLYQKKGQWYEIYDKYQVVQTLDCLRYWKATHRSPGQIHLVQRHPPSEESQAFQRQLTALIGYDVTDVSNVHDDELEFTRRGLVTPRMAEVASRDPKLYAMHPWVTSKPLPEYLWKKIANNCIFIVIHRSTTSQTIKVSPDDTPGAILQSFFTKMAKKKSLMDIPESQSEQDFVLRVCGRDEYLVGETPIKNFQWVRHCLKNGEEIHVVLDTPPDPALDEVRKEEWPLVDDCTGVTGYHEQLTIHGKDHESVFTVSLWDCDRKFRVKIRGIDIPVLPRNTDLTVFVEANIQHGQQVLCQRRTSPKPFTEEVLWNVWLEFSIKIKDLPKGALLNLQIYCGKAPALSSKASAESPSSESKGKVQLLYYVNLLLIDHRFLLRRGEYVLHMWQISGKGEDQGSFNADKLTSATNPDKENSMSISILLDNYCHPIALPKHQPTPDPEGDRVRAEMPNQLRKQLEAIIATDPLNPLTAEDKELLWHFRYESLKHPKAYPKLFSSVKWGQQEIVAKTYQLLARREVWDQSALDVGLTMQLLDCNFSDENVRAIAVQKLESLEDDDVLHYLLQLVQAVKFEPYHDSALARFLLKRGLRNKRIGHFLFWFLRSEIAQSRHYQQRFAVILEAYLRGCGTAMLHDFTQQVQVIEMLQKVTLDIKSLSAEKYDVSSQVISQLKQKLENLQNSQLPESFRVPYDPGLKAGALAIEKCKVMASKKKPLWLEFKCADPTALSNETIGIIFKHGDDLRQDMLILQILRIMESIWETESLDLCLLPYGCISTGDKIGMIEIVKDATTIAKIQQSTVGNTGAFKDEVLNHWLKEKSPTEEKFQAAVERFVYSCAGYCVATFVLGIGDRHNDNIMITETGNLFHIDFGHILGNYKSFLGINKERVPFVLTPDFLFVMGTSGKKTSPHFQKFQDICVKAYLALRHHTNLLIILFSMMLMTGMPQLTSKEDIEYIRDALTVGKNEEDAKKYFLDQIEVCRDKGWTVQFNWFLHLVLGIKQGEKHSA
Sequence of CK2 protein kinase (P68400 whole entry): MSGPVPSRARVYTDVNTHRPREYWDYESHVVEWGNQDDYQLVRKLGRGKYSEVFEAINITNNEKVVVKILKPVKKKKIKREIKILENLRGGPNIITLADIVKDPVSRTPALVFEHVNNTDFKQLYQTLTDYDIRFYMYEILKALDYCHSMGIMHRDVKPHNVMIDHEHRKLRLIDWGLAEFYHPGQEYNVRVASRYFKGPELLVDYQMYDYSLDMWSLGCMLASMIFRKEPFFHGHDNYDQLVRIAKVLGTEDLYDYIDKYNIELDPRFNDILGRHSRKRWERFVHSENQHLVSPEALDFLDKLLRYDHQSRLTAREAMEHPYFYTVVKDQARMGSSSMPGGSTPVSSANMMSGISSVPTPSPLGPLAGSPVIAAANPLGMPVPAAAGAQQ

As for `COC(=O)c1cc2ccc(/C=C3\SC(=O)NC3=O)cc2o1` [Example 110, 5-(2-Carboxymethyl-benzofuran-6-ylmethylene)-thiazolidine-2,4-dione], in experiment [1], the half-maximal inhibitory concentration (IC50) is less than 1000 nM.

Turning to `O=C1NC(=O)C(=Cc2ccc3ncnc(N4CCCCC4)c3c2)S1` [Example 19, 5-[(4-piperidin-1-ylquinazolin-6-yl)methylene]-1,3-thiazolidine-2,4-dione], the inhibition at 1 µM in experiment [2] was approximately 100%.

On to `N=C1NC(=O)/C(=C/c2ccc3ncnc(N4CCCCC4)c3c2)S1` [Example 41, 2-Imino-5-(4-piperidine-quinazolin-6-ylmethylene)-thiazolidin-4-one], for which the 50% inhibitory concentration (IC50) in experiment [1] is less than 1000 nM.

Regarding `CC(C)(C)c1cc(/C=C2\SC(=N)NC2=O)cc2c1OCC2(C)C` [JA], the “activity in a paw swelling assay” value in experiment [3] is “inactive”.

As to `O=C1NC(=O)/C(=C/c2ccc3c(c2)OCO3)S1` [Example 1, 5-(1,3-benzodioxol-5-ylmethylene)-1,3-thiazolidine-2,4-dione], the inhibition at 1 µM in experiment [2] is approximately 100%.

With `O=c1cc(N2CCOCC2)oc2c(-c3ccccc3)cccc12` [LY294002], the IC50 in experiment [4] is 5000 to 10000 nM. The “inhibitory activity on phospholipases” value in experiment [5] is “some inhibitory activity”. Moreover, the IC50 in experiment [6] is 15000 to 20000 nM. In addition, in experiment [7], the neutrophil migration entry is listed as “block” and the superoxide release result is on record as “block”.

Take `O=C1NC(=O)/C(=C/c2ccc3occ(/C=C/C(=O)N4CCCCC4)c3c2)S1` [Example 73, 5-[3-(3-Oxo-3-piperidin-1-yl-propenyl)-benzofuran-5-ylmethylene]-thiazolidine-2,4-dione]: the half-maximal inhibitory concentration (IC50) in experiment [1] is less than 1000 nM.

For `O=C1NC(=O)/C(=C/c2ccc3c(c2)N(Cc2ccccc2)C(=O)CO3)S1` [Example 103, 5-(4-Benzyl-3-oxo-3,4-dihydro-2H-benzo[1,4]oxazin-6-ylmethylene)-thiazolidine-2,4-dione], the IC50 in experiment [1] was less than 1000 nM.

On to `N=C1NC(=O)/C(=C/c2ccc3nccnc3c2)S1` [Example 66, 2-Imino-5-quinoxalin-6-ylmethylene-thiazolidin-4-one], for which the IC50 in experiment [1] was less than 1000 nM. In addition, in experiment [2], the inhibition at 1 µM was approximately 100%.

Consider `O=C1NC(=O)/C(=C/c2ccc3nsnc3c2)S1` [Example 107, 5-Benzo[1,2,5]thiadiazol-5-ylmethylene-thiazolidine-2,4-ione], for which, in experiment [1], the IC50 was less than 1000 nM. In addition, the inhibition at 1 µM in experiment [2] is approximately 100%.

Regarding `COc1ccccc1Cn1cnc2ccc(C=C3SC(=O)NC3=O)cc21` [Example 61, 5-{[1-(2-methoxybenzyl)-1H-benzimidazol-6-yl]methylene}-1,3-thiazolidine-2,4-dione], the IC50 in experiment [1] was less than 1000 nM.
